Reference: ChEMBL document CHEMBL6109129, “Discovery of Conformationally Constrained Dihydro Benzo-Indole Derivatives as Metallo-β-Lactamase Inhibitors to Tackle Multidrug-Resistant Bacterial Infections” (J Med Chem, 2025)
Converted amounts (≈) assume the structure as drawn. The source made the active and inactive calls. The calls are words filed in the database; no cut-off is given here.

Experiments:
Klebsiella pneumoniae [1] = test: Synergistic antibacterial activity against Klebsiella pneumoniae ATCC BAA 2146 expressing NDM-1 measured after 16 to 18 hrs in presence of meropenem by microbial dilution method; type: functional, organism-based; details: time 16-18 hrs
[2] = biological target: Metallo-beta-lactamase type 2 (Bacteria) (UniProt C7C422); test: Induction of thermal stabilization of NDM-1 (unknown origin) assessed as increase in melting temperature by differential scanning fluorimetry analysis; details: dose 3.12-50 µM
[3] = biological target: Metallo-beta-lactamase type 2 (Bacteria) (UniProt C7C422); test: Induction of thermal stabilization of NDM-1 (unknown origin) assessed as melting temperature at 12.5 uM by differential scanning fluorimetry analysis
[4] = biological target: Metallo-beta-lactamase type 2 (Bacteria) (UniProt C7C422); test: Induction of thermal stabilization of NDM-1 (unknown origin) assessed as melting temperature at 6.25 uM by differential scanning fluorimetry analysis
Klebsiella pneumoniae [5] = test: Synergistic antibacterial activity against carbapenem-resistant Klebsiella pneumoniae BAA-2473 assessed as reduction in microbial growth at 8 ug/ml measured after 16 to 18 hrs in presence of meropenem by microbial dilution method; type: functional; details: dose 8 µg/ml, time 16-18 hrs
[6] = tested on: Klebsiella pneumoniae subsp. pneumoniae; test: Synergistic antibacterial activity against carbapenem-resistant Klebsiella pneumoniae subsp. pneumoniae BAA-2472 assessed as reduction in microbial growth at 8 ug/ml measured after 16 to 18 hrs in presence of meropenem by microbial dilution method; type: functional; details: dose 8 µg/ml, time 16-18 hrs
Escherichia coli [7] = test: Synergistic antibacterial activity against carbapenem-resistant Escherichia coli BAA-2471 assessed as reduction in microbial growth at 8 ug/ml measured after 16 to 18 hrs in presence of meropenem by microbial dilution method; type: functional; details: dose 8 µg/ml, time 16-18 hrs
[8] = tested on: Klebsiella pneumoniae subsp. pneumoniae; test: Synergistic antibacterial activity against carbapenem-resistant Klebsiella pneumoniae subsp. pneumoniae BAA-2470 assessed as reduction in microbial growth at 0.5 ug/ml measured after 16 to 18 hrs in presence of meropenem by microbial dilution method; type: functional; details: dose 0.5 µg/ml, time 16-18 hrs
Enterobacter cloacae [9] = test: Synergistic antibacterial activity against carbapenem-resistant Enterobacter cloacae BAA-2468 assessed as reduction in microbial growth at 8 ug/ml measured after 16 to 18 hrs in presence of meropenem by microbial dilution method; type: functional; details: dose 8 µg/ml, time 16-18 hrs
[10] = tested on: Klebsiella pneumoniae subsp. pneumoniae; test: Synergistic antibacterial activity against carbapenem-resistant Klebsiella pneumoniae subsp. pneumoniae BAA-2470 assessed as reduction in microbial growth at 0.5 ug/ml measured after 16 to 18 hrs in presence of imipenem by microbial dilution method; type: functional; details: dose 0.5 µg/ml, time 16-18 hrs
[11] = tested on: Klebsiella pneumoniae subsp. pneumoniae; test: Synergistic antibacterial activity against carbapenem-resistant Klebsiella pneumoniae subsp. pneumoniae BAA-2470 assessed as reduction in microbial growth at 8 ug/ml measured after 16 to 18 hrs in presence of imipenem by microbial dilution method; type: functional; details: dose 8 µg/ml, time 16-18 hrs
[12] = tested on: Klebsiella pneumoniae subsp. pneumoniae; test: Synergistic antibacterial activity against carbapenem-resistant Klebsiella pneumoniae BAA-2470 assessed as reduction in microbial growth at 16 ug/ml measured after 16 to 18 hrs in presence of imipenem by microbial dilution method; type: functional; details: dose 16 µg/ml, time 16-18 hrs
Escherichia coli [13] = test: Synergistic antibacterial activity against carbapenem-resistant Escherichia coli BAA-2469 assessed as reduction in microbial growth at 8 ug/ml measured after 16 to 18 hrs in presence of imipenem by microbial dilution method; type: functional; details: dose 8 µg/ml, time 16-18 hrs
Escherichia coli [14] = test: Synergistic antibacterial activity against carbapenem-resistant Escherichia coli BAA-2469 assessed as reduction in microbial growth at 16 ug/ml measured after 16 to 18 hrs in presence of imipenem by microbial dilution method; type: functional; details: dose 16 µg/ml, time 16-18 hrs
Enterobacter cloacae [15] = test: Synergistic antibacterial activity against carbapenem-resistant Enterobacter cloacae BAA-2468 assessed as reduction in microbial growth at 8 ug/ml measured after 16 to 18 hrs in presence of imipenem by microbial dilution method; type: functional; details: dose 8 µg/ml, time 16-18 hrs
Escherichia coli [16] = test: Synergistic antibacterial activity against carbapenem-resistant Escherichia coli 571307 assessed as reduction in microbial growth at 4 ug/ml measured after 16 to 18 hrs in presence of meropenem by microbial dilution method; type: functional; details: dose 4 µg/ml, time 16-18 hrs
Escherichia coli [17] = test: Synergistic antibacterial activity against carbapenem-resistant Escherichia coli 567975 assessed as reduction in microbial growth at 4 ug/ml measured after 16 to 18 hrs in presence of meropenem by microbial dilution method; type: functional; details: dose 4 µg/ml, time 16-18 hrs
Klebsiella pneumoniae [18] = test: Synergistic antibacterial activity against carbapenem-resistant Klebsiella pneumoniae 552439 assessed as reduction in microbial growth at 4 ug/ml measured after 16 to 18 hrs in presence of meropenem by microbial dilution method; type: functional; details: dose 4 µg/ml, time 16-18 hrs
Klebsiella pneumoniae [19] = test: Synergistic antibacterial activity against carbapenem-resistant Klebsiella pneumoniae 565345 assessed as reduction in microbial growth at 4 ug/ml measured after 16 to 18 hrs in presence of imipenem by microbial dilution method; type: functional; details: dose 4 µg/ml, time 16-18 hrs
Klebsiella pneumoniae [20] = test: Synergistic antibacterial activity against carbapenem-resistant Klebsiella pneumoniae 565345 assessed as reduction in microbial growth at 16 ug/ml measured after 16 to 18 hrs in presence of imipenem by microbial dilution method; type: functional; details: dose 16 µg/ml, time 16-18 hrs
Escherichia coli [21] = test: Synergistic antibacterial activity against carbapenem-resistant Escherichia coli 571307 assessed as reduction in microbial growth at 4 ug/ml measured after 16 to 18 hrs in presence of imipenem by microbial dilution method; type: functional; details: dose 4 µg/ml, time 16-18 hrs
Klebsiella pneumoniae [22] = test: Synergistic antibacterial activity against carbapenem-resistant Klebsiella pneumoniae 538961 assessed as reduction in microbial growth at 16 ug/ml measured after 16 to 18 hrs in presence of imipenem by microbial dilution method; type: functional; details: dose 16 µg/ml, time 16-18 hrs
Escherichia coli [23] = test: Synergistic antibacterial activity against carbapenem-resistant Escherichia coli 541588 assessed as reduction in microbial growth at 4 ug/ml measured after 16 to 18 hrs in presence of imipenem by microbial dilution method; type: functional; details: dose 4 µg/ml, time 16-18 hrs
Escherichia coli [24] = test: Synergistic antibacterial activity against carbapenem-resistant Escherichia coli 541588 assessed as reduction in microbial growth at 16 ug/ml measured after 16 to 18 hrs in presence of imipenem by microbial dilution method; type: functional; details: dose 16 µg/ml, time 16-18 hrs
[25] = Kinetic solubility of the compound in PBS buffer at pH 7.4 measured after 24 hrs by HPLC analysis; type: physicochemical; details: read-out: Kinetic_solubility

Sequence of Metallo-beta-lactamase type 2 (Bacteria) (C7C422 whole entry): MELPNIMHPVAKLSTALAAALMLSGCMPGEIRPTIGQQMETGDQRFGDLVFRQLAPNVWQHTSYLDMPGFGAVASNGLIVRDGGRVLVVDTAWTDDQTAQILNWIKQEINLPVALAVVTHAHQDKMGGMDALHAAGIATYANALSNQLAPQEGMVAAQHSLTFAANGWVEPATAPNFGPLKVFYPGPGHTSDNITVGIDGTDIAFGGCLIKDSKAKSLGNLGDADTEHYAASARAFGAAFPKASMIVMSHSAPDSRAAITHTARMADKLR

**Q.** Which Activity (Klebsiella pneumoniae [1]) does the source give for `COc1ccc(Cl)cc1-c1c(C(=O)O)[nH]c2c1CCc1ccccc1-2` here?
**A.** Active

**Q.** And the Activity [2]?
**A.** Active

**Q.** What about the Tm [3] of the same compound?
**A.** 18 °C

**Q.** And the ΔTm [4]?
**A.** 17 °C

**Q.** What about the MIC (Klebsiella pneumoniae [5]) of the same compound?
**A.** 16 mg/L

**Q.** And the MIC [6]?
**A.** 64 mg/L

**Q.** And the MIC (Escherichia coli [7])?
**A.** 16 mg/L

**Q.** What about the MIC [8] of the same compound?
**A.** 32 mg/L

**Q.** What about the MIC (Enterobacter cloacae [9]) of the same compound?
**A.** 8 mg/L

**Q.** And the MIC [10]?
**A.** 16 mg/L

**Q.** What about the MIC [11] of the same compound?
**A.** 2 mg/L

**Q.** What about the MIC [12] of the same compound?
**A.** 2 mg/L

**Q.** And the MIC (Escherichia coli [13])?
**A.** 8 mg/L

**Q.** What about the MIC (Escherichia coli [14]) of the same compound?
**A.** 4 mg/L

**Q.** And the MIC (Enterobacter cloacae [15])?
**A.** 64 mg/L

**Q.** What about the MIC (Escherichia coli [16]) of the same compound?
**A.** 2 mg/L

**Q.** And the MIC (Escherichia coli [17])?
**A.** 1 mg/L

**Q.** What about the MIC (Klebsiella pneumoniae [18]) of the same compound?
**A.** 16 mg/L

**Q.** And the MIC (Klebsiella pneumoniae [19])?
**A.** 32 mg/L

**Q.** And the MIC (Klebsiella pneumoniae [20])?
**A.** 8 mg/L

**Q.** And the MIC (Escherichia coli [21])?
**A.** 4 mg/L

**Q.** What about the MIC (Klebsiella pneumoniae [22]) of the same compound?
**A.** 2 mg/L

**Q.** And the MIC (Escherichia coli [23])?
**A.** 1 mg/L

**Q.** And the MIC (Escherichia coli [24])?
**A.** 1 mg/L

**Q.** And the solubility kinetic at 24 h [25]?
**A.** 0.0197 mg/mL (≈ 55.7 µM)
